According to US20100099676A1 (SHIONOGI & CO., LTD., priority 2006, published 2010):

Biological target: T1, MMP-13 (Homo sapiens, UniProt P45452)
T1 construct: purchased Calbiochem (EMD/MERCK Biosciences)
Test: Enzyme inhibiting activity of MMPs, fluorogenic peptide substrate
Format: biochemical
Settings: compounds not described in the Tables; read-out: inhibiting activity for MMP-13
Protocol: Various human MMPs (MMP-2, MMP-9 and MMP-13) were purchased from Calbiochem (EMD/MERCK Biosciences).
Since the purchased MMP-13 was Proenzyme, the activated one was used, which was incubated at 37° C. for 2 hours after the successive addition of an assay buffer (containing 50 mM Tris-HCl (pH7.6), 0.3 M NaCl, 10 mM CaCl2, 0.005% Brij35) and APMA (final concentration 1 mM) to the enzyme solution.
The enzyme activity of MMPs was measured according to the method described in C. Graham Knight, Frances Willenbrock and Gillian Murphy: A novel coumarin-labelled peptide for sensitive continuous assays of the matrix metalloproteinases: FEBS LETT., 296, (1992), 263-266. As a substrate, MOCAc-Pro-Leu-Gly-Leu-A2Pr(DNP)- Ala-Arg-NH2 (Peptide Institute, Inc. Osaka, Japan) was used, and the following four assays are performed per compound (inhibitor) for measuring the inhibiting activity.
(A) Substrate (synthetic substrate), enzyme (MMPs), inhibitor
(B) Substrate (synthetic substrate), inhibitor
(C) Substrate (synthetic substrate), enzyme (MMPs)
(D) Substrate (synthetic substrate)
In each assay, the fluorescent intensity was measured, and inhibition (%) was calculated by the following equation.
Inhibition (%)=[I−(A−B)/(C−D)]×100
IC50 indicates a concentration at which inhibition (%) is 50%.

IC50	SMILES
< 10 nM	C[C@@H](NS(=O)(=O)N1CCN(c2ccc(C#Cc3ccc4cccc(C(=O)NCCF)c4c3)cc2)CC1)C(=O)O [Compound I-56, (R)-2-(4-{4-[8-(2-fluoroethylcarbamoyl)-naphthalen-2-ylethynyl]-phenyl}-piperazine-1-sulfonylamino)-proponic acid]
10 to 100 nM	CC(C)[C@H](NS(=O)(=O)N1CCN(c2ccc(C#Cc3ccc4cccc(C(N)=O)c4c3)cc2)CC1)C(=O)O [Compound I-58, (S)-2-{4-[4-(8-carbamoylnaphthalen-2-ylethynyl)-phenyl]-piperazine-1-sulfonylamino}-3-methylbutanoic acid]
< 10 nM	C[C@@H](NS(=O)(=O)N1CCN(c2ccc(C#Cc3ccc4cccc(C(=O)NC5CC5)c4c3)cc2)CC1)C(=O)O [Compound I-107, (R)-2-{4-[4-(8-cyclopropylcarbamoylnaphthalen-2-ylethynyl)-phenyl]-piperazine-1-sulfonylamino}-proponic acid]
10 to 100 nM	C[C@@H](NS(=O)(=O)N1CCN(c2ccc(C#Cc3ccc4cccc(-c5ncco5)c4c3)cc2)CC1)C(=O)O [Compound I-109, (R)-2-{4-[4-(8-oxazol-2-ylnaphthalen-2-ylethynyl)-phenyl]-piperazine-1-sulfonylamino}-proponic acid]
10 to 100 nM	COc1cccc2ccc(C#Cc3ccc(N4CCN(S(=O)(=O)N[C@H](C)C(=O)O)CC4)cc3)cc12 [Compound I-99, (R)-2-{4-[4-(8-methoxynaphthalen-2-ylethynyl)-phenyl]-piperazine-1-sulfonylamino}-proponic acid]
10 to 100 nM	CSc1cccc2ccc(C#Cc3ccc(N4CCN(S(=O)(=O)N[C@H](C)C(=O)O)CC4)cc3)cc12 [Compound I-82, (R)-2-{4-[4-(8-methylsulfanylnaphthalen-2-ylethynyl)-phenyl]-piperazine-1-sulfonylamino}-proponic acid]
10 to 100 nM	CO/N=C(\C)c1cccc2ccc(C#Cc3ccc(N4CCN(S(=O)(=O)N[C@H](C)C(=O)O)CC4)cc3)cc12 [Compound I-95, (R)-2-{4-[4-(8-{1-[(E)-methoxyimino]-ethyl}-naphthalen-2-ylethynyl)-phenyl]-piperazine-1-sulfonylamino}-proponic acid]
10 to 100 nM	C[C@@H](NS(=O)(=O)N1CCN(c2ccc(C#Cc3ccc4cccc(-c5ccc[nH]5)c4c3)cc2)CC1)C(=O)O [Compound I-111, (R)-2-(4-{4-[8-(1H-pyrrol-2-yl)-naphthalen-2-ylethynyl]-phenyl}-piperazine-1-sulfonylamino)-proponic acid]
10 to 100 nM	CCC[C@H](NS(=O)(=O)N1CCN(c2ccc(C#Cc3ccc4cccc(C(C)=O)c4c3)cc2)CC1)C(=O)O [Compound I-110, (S)-2-{4-[4-(8-acetylnaphthalen-2-ylethynyl)-phenyl]-piperazine-1-sulfonylamino}-pentanoic acid]
< 10 nM	C[C@@H](NS(=O)(=O)N1CCN(c2ccc(C#Cc3ccc4cccc(/C=C/C(N)=O)c4c3)cc2)CC1)C(=O)O [Compound I-68, (R)-2-(4-{4-[8-((E)-2-carbamoylvinyl)-naphthalen-2-ylethynyl]-phenyl}-piperazine-1-sulfonylamino)-proponic acid]
< 10 nM	CCNC(=O)c1cccc2ccc(C#Cc3ccc(N4CCN(S(=O)(=O)N[C@H](C)C(=O)O)CC4)cc3)cc12 [Compound I-104, (R)-2-{4-[4-(8-ethylcarbamoylnaphthalen-2-ylethynyl)-phenyl]-piperazine-1-sulfonylamino}-proponic acid]
10 to 100 nM	CCC[C@H](NS(=O)(=O)N1CCN(c2ccc(C#Cc3cccc(-c4ncc(C)o4)c3)cc2)CC1)C(=O)O [Compound I-26, (S)-2-(4-{4-[3-(5-methyloxazol-2-yl)-phenylethynyl]-phenyl}-piperazine-1-sulfonylamino)-pentanoic acid]
< 10 nM	C[C@@H](NS(=O)(=O)N1CCN(c2ccc(C#Cc3cccc(C(=O)NCc4ccc(Cl)cc4)c3)cc2)CC1)C(=O)O [Compound I-32, (R)-2-(4-{4-[3-(4-chlorobenzylcarbamoyl)-phenylethynyl]-phenyl}-piperazine-1-sulfonylamino)-proponic acid]
< 10 nM	C[C@@H](NS(=O)(=O)N1CCN(c2ccc(C#Cc3cccc(C(=O)NCc4ccccc4)n3)cc2)CC1)C(=O)O [Compound I-18, (R)-2-{4-[4-(6-benzylcarbamoylpyridine 2-ylethynyl)-phenyl]-piperazine-1-sulfonylamino}-proponic acid]
10 to 100 nM	Cc1cnc(-c2cccc(C#Cc3ccc(N4CCN(S(=O)(=O)N[C@@H](C(=O)O)C(C)C)CC4)cc3)c2)o1 [Compound I-27, (R)-3-methyl-2-(4-{4-[3-(5-methyloxazol-2-yl)-phenylethynyl]-phenyl}-piperazine-1-sulfonylamino)-butanoic acid]
10 to 100 nM	C[C@@H](NS(=O)(=O)N1CCN(c2ccc(C#Cc3ccc4cccc(S(N)(=O)=O)c4c3)cc2)CC1)C(=O)O [Compound I-81, (R)-2-{4-[4-(8-sulfamoylnaphthalen-2-ylethynyl)-phenyl]-piperazine-1-sulfonylamino}-proponic acid]
< 10 nM	C[C@@H](NS(=O)(=O)N1CCN(c2ccc(C#Cc3ccc4cccc(/C=C/c5nnn[nH]5)c4c3)cc2)CC1)C(=O)O [Compound I-71]
10 to 100 nM	CCC[C@H](NS(=O)(=O)N1CCN(c2ccc(C#Cc3ccc4cccc(C(N)=O)c4c3)cc2)CC1)C(=O)O [Compound I-92, (S)-2-{4-[4-(8-carbamoylnaphthalen-2-ylethynyl)-phenyl]-piperazine-1-sulfonylamino}-pentanoic acid]
10 to 100 nM	Cc1cnc(-c2cccc3ccc(C#Cc4ccc(N5CCN(S(=O)(=O)N[C@H](C)C(=O)O)CC5)cc4)cc23)o1 [Compound I-108, (R)-2-(4-{4-[8-(5-methyloxazol-2-yl)-naphthalen-2-ylethynyl]-phenyl}-piperazine-1-sulfonylamino)-proponic acid]
10 to 100 nM	CCC[C@H](NS(=O)(=O)N1CCN(c2ccc(/C=C/c3ccc4cccc(C(N)=O)c4c3)cc2)CC1)C(=O)O [Compound I-59, (S)-2-(4-{4-[(E)-2-(8-carbamoylnaphthalen-2-yl)-vinyl]-phenyl}-piperazine-1-sulfonylamino)-pentanoic acid]
< 10 nM	C[C@@H](NS(=O)(=O)N1CCN(c2ccc(C#Cc3ccnc(C(=O)NCc4ccccc4)c3)cc2)CC1)C(=O)O [Compound I-19, (R)-2-{4-[4-(2-benzylcarbamoylpyridin-4-ylethynyl)-phenyl]-piperazine-1-sulfonylamino}-proponic acid]
10 to 100 nM	CC(C)NS(=O)(=O)c1cccc2ccc(C#Cc3ccc(N4CCN(S(=O)(=O)N[C@H](C)C(=O)O)CC4)cc3)cc12 [Compound I-80, (R)-2-{4-[4-(8-isopropylsulfamoylnaphthalen-2-ylethynyl)-phenyl]-piperazine-1-sulfonylamino}-proponic acid]
< 10 nM	C[C@@H](NS(=O)(=O)N1CCN(c2ccc(C#Cc3ccc4cccc(C(=O)NCc5ccccc5)c4c3)cc2)CC1)C(=O)O [Compound I-106, (R)-2-{4-[4-(8-benzylcarbamoylnaphthalen-2-ylethynyl)-phenyl]-piperazine-1-sulfonylamino}-proponic acid]
< 10 nM	Cc1cc(CNC(=O)c2cccc(C#Cc3ccc(N4CCN(S(=O)(=O)N[C@H](C)C(=O)O)CC4)cc3)c2)ccc1F [Compound I-28, (R)-2-(4-{4-[3-(4-fluoro3-methylbenzylcarbamoyl)-phenylethynyl]-phenyl}-piperazine-1-sulfonylamino)-proponic acid]
10 to 100 nM	CC(C)[C@@H](NS(=O)(=O)N1CCN(c2ccc(C#Cc3ccc4cccc(C(N)=O)c4c3)cc2)CC1)C(=O)O [Compound I-93, (R)-2-{4-[4-(8-carbamoylnaphthalen-2-ylethynyl)-phenyl]-piperazine-1-sulfonylamino}-3-methylbutanoic acid]
10 to 100 nM	C[C@@H](NS(=O)(=O)N1CCN(c2ccc(C#Cc3ccc4cccc(S(C)(=O)=O)c4c3)cc2)CC1)C(=O)O [Compound I-83, (R)-2-{4-[4-(8-methanesulfonylnaphthalen-2-ylethynyl)-phenyl]-piperazine-1-sulfonylamino}-proponic acid]
10 to 100 nM	CO/N=C(/C)c1cccc2ccc(C#Cc3ccc(N4CCN(S(=O)(=O)N[C@H](C)C(=O)O)CC4)cc3)cc12 [Compound I-96, (R)-2-{4-[4-(8-{1-[(Z)-methoxyimino]-ethyl}-naphthalen-2-ylethynyl)-phenyl]-piperazine-1-sulfonylamino}-proponic acid]
10 to 100 nM	CC(C)C[C@@H](NS(=O)(=O)N1CCN(c2ccc(C#Cc3ccc4cccc(C(N)=O)c4c3)cc2)CC1)C(=O)O [Compound I-60, (R)-2-{4-[4-(8-carbamoylnaphthalen-2-ylethynyl)-phenyl]-piperazine-1-sulfonylamino}-4-methylpentanoic acid]

SMILES	IC50
CC(C)CO/N=C1\CCc2ccc(C#Cc3ccc(N4CCN(S(=O)(=O)N[C@H](C)C(=O)O)CC4)cc3)cc21 [Compound I-161, (R)-2-[4-(4-{3-[(E)-isobutoxyimino]indan-5-ylethynyl}-phenyl)-piperazine-1-sulfonylamino]-proponic acid]	10 to 100 nM
